# In article PMC10759609, “A novel PDPN antagonist peptide CY12-RP2 inhibits melanoma growth via Wnt/β-catenin and modulates the immune cells” (Journal of Experimental & Clinical Cancer Research : CR, 2024):
# Peptide text beside a SMILES is read from it.
# Columns and labels:
# A375 cellular spheroid = experiment: 3D spheroid diameter, A375; type: cell-based; details: A375 spheroids; 0, 50, 100, 200 μM, 5 days
# Procedure: A375 and A875 cells were collected and suspended in Matrigel (Corning) with a density of 1.0 × 10^7 cells per mL. 3D spheroids were fabricate using cell-processing system that have two pumps. One pump was loaded with Matrigel and another with fluorocarbon oil (3 M NOVEC, HFE-7000). The flow rate of Matrigel was 20 μL/min and the fluorocarbon oil rate was 30 μL/min. The 3D spheroids were incubated at 37 °C with 5% CO2 after printing. Culturing medium was DMEM medium supplemented with 10% FBS, and 100 IU of penicillin and […] streptomycin. The medium was changed every 3 days. Afterward, the 3D spheroids were harvested for drug analysis.
# Prepared melanoma cells spheroids were plated in 48-well plates. Following incubation for 3 days, the spheroids were exposed to different concentrations (0, 50, 100 and 200 μM) of CY12-RP2, and changes in spheroid diameter were detected after 5 days of treatment. Additionally, melanoma cell spheroids were treated with various concentrations of CY12-RP2 as described previously, and after 72 h, the spheroids were stained for immunofluorescence with caspase 3 primary antibody. The specific experimental procedures refer to the following immunofluorescence analysis. Additionally, we co-cultured peptide-stimulated PBMC with spheroids to determine the tumor-killing ability of activated PBMC.
# A375 cells = experiment: Annexin V/PI flow cytometry apoptosis, A375; type: cell-based; details: 0, 50, 100, 200 μM, 48 h
# Procedure: In this study, cell apoptosis was analyzed by flow cytometry using a PI/FITC-Annexin V Apoptosis Detection Kit (4A Biotech, Beijing, China). Briefly, melanoma cells were collected and washed with pre-chilled PBS, then resuspended with Annexin V staining buffer. Afterward, fluorescein isothiocyanate (FITC)-Annexin V and PI were stained for 5 min at RT, and then immediately detected using a Beckman flow cytometer. To investigate immune cell infiltration of the lung and spleen in the pulmonary metastasis mouse model, the surface and nuclear antigen staining were performed following the experimental procedure. Fluorescence-labeled mAb against CD3, CD25, CD49b, GranzymeB, CD11b, CD86, and CD206 were purchased from BioLegend (BioLegend, San Diego, CA), and CD4, CD8, and Foxp3 from Tonbo. […] Finally, the samples were measured using flow cytometry.
# Fig. 3 Biopanning of PDPN antagonist peptides. […] B Immunofluorescence staining was performed to quantify the colocalization of CY12-RP2 and PDPN protein in melanoma cell lines (A375, A875). […] D Suppression efficiency of melanoma cells growth by CY12-RP2 was measured by CCK8 assay at various concentrations for 24, 48 or 72 h, respectively. […] G, H The 3D cellular spheres were treated with the set concentrations of CY12-RP2 for 5 days and cell morphology was assessed (G), relative spheroid diameter was measured (H). […]
# [1] = test system: liver, heart, spleen, lung and kidney; details: mouse, in vivo
# Procedure: For histopathological analysis, after BALB/c nude mice were sacrificed, organs (heart, liver, spleen, lung, and kidney) were collected and fixed in 4% paraformaldehyde for 24 h at RT. The fixed organs were then dehydrated and inserted in paraffin, and prepared in 2 µm sections. The prepared sections and experimental procedures were routinely carried out by Servicebio company.
# [2] = test system: immune cells in lungs and spleens; experiment: Immunofluorescence of immune cell infiltration, spleen and lung, lung metastasis model; type: in vivo, BALB/c mice
# Procedure: Immunofluorescence analysis was used for antigen localization and quantification. For PDPN immunofluorescence staining, melanoma cells (A375, A875) were seeded in coverslips, cultured for 24 h, and fixed using 4% paraformaldehyde for 15 min at room temperature (RT). The cells were then permeabilized with 0.2% Triton X-100 in PBS for 10 min. Cells were blocked using 1% bovine serum albumin (BSA) in PBS for 30 min at RT, and incubated with the primary antibody overnight at 4 ℃. Afterwards, cells were washed three times with PBS containing 0.01% Triton X-100 for 5 min, and incubated with Alexa Fluor 568–conjugated secondary antibodies at RT for 1 h. Lastly, the nuclei were dyed with 4’,6-diamidino-2-phenylindole (DAPI) for 5 min at RT, and the slides were imaged using a NIKON laser scanning confocal microscope. To further verify the specificity binding ability of CY12-RP2 with PDPN, immunofluorescence was detected for analysis in melanoma cells. Briefly, A375 or A875 cells were incubated with CY12-RP2 at a concentration of 5 μM for 10 h at 37 ℃, and then washed with DMEM to remove the unbound peptide. The anti-PDPN primary antibody was then incubated for 4 h at RT. Further experimental procedures were performed as described above. To determine the immune cell infiltration and proportion changes in the lungs and spleens in the pulmonary metastasis mouse model, sequential frozen slices (12 μm) were prepared and incubated with CD3, CD4, CD8, Foxp3, CD56, F4/80, and CD11c primary antibodies for 1 h, and then incubated with Alexa Fluor 488-conjugated goat anti-mouse F(ab’)2 and Alexa Fluor 647-conjugated goat anti-mouse F(ab’)2 in PBS containing 1% BSA and 1% goat serum for 30 min. All incubations were conducted under coverslips at RT, and then repeatedly washed 3 times with PBS. Coverslips were mounted after staining cell nuclei with DAPI, and imaged using a NIKON laser scanning confocal microscope.
structure (smiles),measurement,setting,value
CC(C)C[C@H](NC(=O)[C@H](Cc1ccc(O)cc1)NC(=O)[C@@H](N)[C@@H](C)O)C(=O)N[C@@H](CS)C(=O)N[C@H](C(=O)N[C@@H](C)C(=O)N[C@@H](CS)C(=O)N[C@@H](CC(=O)O)C(=O)N[C@@H](Cc1ccc(O)cc1)C(=O)N[C@H](C(=O)N[C@@H](Cc1c[nH]cn1)C(=O)N[C@@H](Cc1c[nH]cn1)C(=O)O)[C@@H](C)O)[C@@H](C)O [CY12-RP2] (H-TYLCTACDYTHH-OH; N-terminus and C-terminus assumed),relative spheroid diameter,A375 cellular spheroid,significantly diminished with increasing CY12-RP2 concentration
same,apoptosis rate,A375 cells,significantly up-regulated by CY12-RP2 in a dose-dependent manner
same,toxic effect on organs (overall),[1],slightly toxic effect
same,M2-type macrophages,[2]; immunofluorescence,decreased proportion
same,NK cells and M1-type macrophages,[2]; immunofluorescence,increased proportions
same,infiltration of CD3 + CD4 + T cells and CD3 + CD8 + T cells,[2]; multiplex immunofluorescence,remarkable increase
same,infiltration of Treg cells,[2]; multiplex immunofluorescence,reduction
